In patent US20240132513A1, “BENZAZEPINE DERIVATIVES, COMPOSITIONS, AND METHODS FOR TREATING COGNITIVE IMPAIRMENT” (AGENEBIO, INC., priority 2022, published 2024):
Where two headings read alike, the source gives them in different places.

Assays:
α5β3γ2 GABAA R = α5β3γ2 GABAA R (Homo sapiens, UniProt P18507+P31644); assay: Binding activity on GABAA R: inhibition of [3H]Ro15-1788 binding, α5 containing receptor
Method in brief: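 Displacement of [3H]Ro15-1788 (flumazenil) measured at 4 °C over 1 h using 0.2 mg/ml membrane protein from Ltk cells carrying α5β3γ2 GABAA receptors, expression induced with 0.5 μM dexamethasone for 1 day; buffer pH 7.4 KH2PO4/EDTA/KCl. 10 μM diazepam defined nonspecific binding; filter-trapped radioactivity counted, in triplicate.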

GABAA R (α5β2γ2) = target: T1, GABAA R (α5β2γ2) (Homo sapiens, UniProt P18507+P31644); assay: Positive allosteric modulator activity: potentiation of EC20 GABA current in oocytes; format: cell-based
T1 construct: expressed in transfected cells
T1 sequence (P31644 32-462): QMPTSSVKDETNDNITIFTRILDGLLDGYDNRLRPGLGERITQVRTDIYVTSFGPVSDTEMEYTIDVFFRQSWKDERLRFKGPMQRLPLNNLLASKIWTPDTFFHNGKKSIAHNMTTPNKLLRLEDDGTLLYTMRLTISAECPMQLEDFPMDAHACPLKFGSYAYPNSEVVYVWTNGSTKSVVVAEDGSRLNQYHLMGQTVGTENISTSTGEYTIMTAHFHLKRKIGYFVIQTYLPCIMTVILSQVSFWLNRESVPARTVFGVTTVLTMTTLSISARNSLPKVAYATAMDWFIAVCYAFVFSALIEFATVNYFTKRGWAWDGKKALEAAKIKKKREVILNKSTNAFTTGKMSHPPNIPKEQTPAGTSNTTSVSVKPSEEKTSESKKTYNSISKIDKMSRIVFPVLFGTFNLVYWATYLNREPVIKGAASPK
T1 sequence (P47870 25-512 partner limits assumed): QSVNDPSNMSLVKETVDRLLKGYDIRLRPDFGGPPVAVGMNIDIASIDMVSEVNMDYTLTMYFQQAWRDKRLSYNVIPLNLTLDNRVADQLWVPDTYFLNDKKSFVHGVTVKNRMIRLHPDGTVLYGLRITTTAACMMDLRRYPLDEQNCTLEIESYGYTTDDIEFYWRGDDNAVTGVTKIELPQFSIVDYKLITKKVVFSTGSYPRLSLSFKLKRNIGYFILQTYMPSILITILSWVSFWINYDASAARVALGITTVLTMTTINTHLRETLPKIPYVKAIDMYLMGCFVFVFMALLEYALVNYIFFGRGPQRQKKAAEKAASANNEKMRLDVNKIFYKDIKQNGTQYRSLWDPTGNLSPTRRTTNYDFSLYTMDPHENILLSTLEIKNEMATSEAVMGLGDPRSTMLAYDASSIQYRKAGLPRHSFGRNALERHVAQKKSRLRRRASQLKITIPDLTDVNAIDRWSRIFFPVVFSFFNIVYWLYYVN
T1 sequence (P18507 40-475): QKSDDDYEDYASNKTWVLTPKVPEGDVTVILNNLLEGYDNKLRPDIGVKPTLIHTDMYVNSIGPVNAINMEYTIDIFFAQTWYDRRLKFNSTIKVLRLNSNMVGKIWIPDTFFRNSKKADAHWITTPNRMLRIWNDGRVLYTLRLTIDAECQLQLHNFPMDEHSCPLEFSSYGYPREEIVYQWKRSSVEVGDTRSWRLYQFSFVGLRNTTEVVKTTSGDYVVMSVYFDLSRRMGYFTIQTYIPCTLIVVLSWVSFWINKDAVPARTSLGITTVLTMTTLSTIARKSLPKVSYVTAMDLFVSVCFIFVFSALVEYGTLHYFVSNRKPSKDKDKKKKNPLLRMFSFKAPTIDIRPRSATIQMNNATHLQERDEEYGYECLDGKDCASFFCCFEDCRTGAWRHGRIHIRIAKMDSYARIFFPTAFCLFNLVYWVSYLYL
Method: On day 1, 1 ng/32 nL of GABAA α5β2γ2 cDNA was injected into one oocyte. Test starts on day 2. The cDNA injected to the oocytes was a mix of alpha, beta and gamma, their ratio is 1:1:10 (by weight) and the total weight of the mixed 3 subunits to be injected in one oocyte was 1 ng in 32 nl volume. The injected oocytes can also be tested on day 3. In such case, the cDNA amount injected to the oocytes should be reduced by 20%.
Compounds of the present disclosure were tested using the following procedures.
8 oocytes were placed in 8 chambers of OpusXpress and superfused with Modified Barth's Saline (MBS) at 3 mL/min. Glass electrodes back-filled with 3M KCl (0.5-3 megaohms) were used. Membrane potential of oocytes was voltage-clamped at −60 mV. • 2).
Control Test (Diazepam or Methyl 3,5-Diphenylpyridazine-4-Carboxylate) • 1). New oocytes was used to run new test. • 2). […] Oocytes were washed with MBS for 5-10 min. • 4). […] Itest was divided by IGABA to obtain potentiation (%).
Test Compounds at Multiple Doses • 1). Repeat the above steps 1), 2) and 3) in the control test. • 2). […] Divide Itest by IGABA to obtain potentiation (%). • 3). Discard all tested oocytes, new oocytes were used and the above steps 1) and 2) were repeated to test second concentration of the same compound. Each oocyte was used for only one concentration test for a single test compound. The steps were repeated for other test compounds.

[1] = ranges of the column heads, [3H]Ro15-1788, Ltk cell membranes
[2] = read-out: GABA α5 Functional Data: potentiation
[3] = read-out: GABA α5 Functional Data: potentiation, @ 100 nM, EC20 GABA, ranges of the column heads

Chain of α5β3γ2 GABAA R (P31644 32-462): as the sequence (P31644 32-462) above
Chain of α5β3γ2 GABAA R (P28472 26-473 partner): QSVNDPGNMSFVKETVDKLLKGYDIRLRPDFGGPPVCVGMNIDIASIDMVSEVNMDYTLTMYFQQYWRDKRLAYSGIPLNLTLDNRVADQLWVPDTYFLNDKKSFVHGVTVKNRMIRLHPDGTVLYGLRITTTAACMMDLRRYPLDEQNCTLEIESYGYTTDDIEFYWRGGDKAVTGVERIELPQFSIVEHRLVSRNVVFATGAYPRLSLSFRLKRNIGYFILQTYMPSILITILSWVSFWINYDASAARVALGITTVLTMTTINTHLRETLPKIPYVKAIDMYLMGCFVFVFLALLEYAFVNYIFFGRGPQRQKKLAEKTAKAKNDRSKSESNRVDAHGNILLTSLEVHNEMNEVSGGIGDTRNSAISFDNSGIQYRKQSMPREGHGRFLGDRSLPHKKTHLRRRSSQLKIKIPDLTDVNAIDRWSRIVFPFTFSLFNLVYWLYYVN
Chain of α5β3γ2 GABAA R (P18507 40-475): as the sequence (P18507 40-475) above

| SMILES | Ki (α5β3γ2 GABAA R; [1]) | activation at 0.1 µM (GABAA R (α5β2γ2); [2]) | Ki (α5β3γ2 GABAA R) | activation at 0.1 µM (GABAA R (α5β2γ2); [3]) |
| --- | --- | --- | --- | --- |
| CCn1cc2c(n1)-c1cc(Cl)ccc1-n1cnc(-c3nc(C(C)C)no3)c1C2 [Compound 104] | < 0.1 µM | 5 to 20% | – | – |
| Cn1cc2c(n1)-c1cc(Cl)ccc1-n1cnc(-c3noc(C(C)(C)C)n3)c1C2 [Compound 143] | – | – | < 0.1 µM | 5 to 20% |
| COc1ccc2c(c1)-c1nn(C)cc1Cc1c(-c3nnc(C)o3)ncn1-2 [Compound 290] | – | – | < 0.1 µM | 20 to 50% |
| COc1ccc2c(c1)-c1nn(Cc3ccccc3)cc1Cc1c(-c3nc(C(C)C)no3)ncn1-2 [Compound 44] | – | – | < 0.1 µM | 20 to 50% |
| CCn1cc2c(n1)-c1cc(OC)ccc1-n1cnc(-c3noc(COCC(F)(F)F)n3)c1C2 [Compound 254] | – | – | < 0.1 µM | 20 to 50% |
| COc1ccc2c(c1)-c1[nH]ncc1Cc1c(-c3nc(C4CCOC4)no3)ncn1-2 (centres unmarked) [Compound 100] | – | – | < 0.1 µM | 5 to 20% |
| Cn1cc2c(n1)-c1cc(Cl)ccc1-n1cnc(-c3nc([C@H]4CCOC4)no3)c1C2 [Compound 253] | – | – | < 0.1 µM | 5 to 20% |
| COc1ccc2c(c1)-c1nn(C)cc1Cc1c(-c3nc(C4CC4)no3)ncn1-2 [Compound 120] | < 0.1 µM | 20 to 50% | – | – |
| COc1ccc2c(c1)-c1[nH]ncc1Cc1c(-c3nc(C(C)(C)C)no3)ncn1-2 [Compound 11] | – | – | < 0.1 µM | 5 to 20% |
| COc1ccc2c(c1)-c1nn(C)cc1Cc1c(-c3noc(C)n3)ncn1-2 [Compound 131] | – | – | < 0.1 µM | 5 to 20% |
| COc1ccc2c(c1)-c1nn(C)cc1Cc1c(-c3noc(C4COC4)n3)ncn1-2 [Compound 202] | – | – | < 0.1 µM | 20 to 50% |
| CCn1cc2c(n1)-c1cc(Cl)ccc1-n1cnc(-c3noc(C(C)C)n3)c1C2 [Compound 175] | < 0.1 µM | 20 to 50% | – | – |
| COCc1coc(-c2ncn3c2Cc2cn(C)nc2-c2cc(Cl)ccc2-3)n1 [Compound 284] | < 0.1 µM | > 50% | – | – |
| COc1ccc2c(c1)-c1nn(C)cc1Cc1c(-c3noc(C(C)(C)C)n3)ncn1-2 [Compound 146] | – | – | < 0.1 µM | 5 to 20% |
| Cn1cc2c(n1)-c1cc(Cl)ccc1-n1cnc(-c3nc(C4CCOC4)no3)c1C2 (centres unmarked) [Compound 134] | – | – | < 0.1 µM | 20 to 50% |
| CC(C)n1cc2c(n1)-c1cc(Cl)ccc1-n1cnc(-c3ncco3)c1C2 [Compound 167] | – | – | < 0.1 µM | 5 to 20% |
| COc1ccc2c(c1)-c1[nH]ncc1Cc1c(-c3nc(C)no3)ncn1-2 [Compound 9] | < 0.1 µM | 5 to 20% | – | – |
| COc1ccc2c(c1)-c1nn(CC3CCCO3)cc1Cc1c(-c3nc(C(C)C)no3)ncn1-2 (centres unmarked) [Compound 231] | – | – | < 0.1 µM | 5 to 20% |
| Clc1ccc2c(c1)-c1nn(CC3CCCO3)cc1Cc1c(-c3noc(C4CCOC4)n3)ncn1-2 (centres unmarked) [Compound 308] | – | – | < 0.1 µM | 20 to 50% |
| CCn1cc2c(n1)-c1cc(Cl)ccc1-n1cnc(C3=N[C@H](c4ccccc4)CO3)c1C2 [Compound 178] | – | – | < 0.1 µM | 20 to 50% |
| Clc1ccc2c(c1)-c1nn(CC3CCCO3)cc1Cc1c(-c3nc(C4CCOC4)no3)ncn1-2 (centres unmarked) [Compound 281] | – | – | < 0.1 µM | 5 to 20% |
| CCn1cc2c(n1)-c1cc(Cl)ccc1-n1cnc(-c3nc(C4CC4)no3)c1C2 [Compound 133] | < 0.1 µM | 20 to 50% | – | – |
| Cn1cc2c(n1)-c1cc(Cl)ccc1-n1cnc(-c3nnc(C4CCOC4)o3)c1C2 (centres unmarked) [Compound 212] | < 0.1 µM | 5 to 20% | – | – |
| Clc1ccc2c(c1)-c1nn(CC3COC3)cc1Cc1c(-c3nc(C4CC4)no3)ncn1-2 [Compound 224] | – | – | < 0.1 µM | 20 to 50% |
| CCn1cc2c(n1)-c1cc(Cl)ccc1-n1cnc(-c3nc(C4CCOC4)no3)c1C2 (centres unmarked) [Compound 192] | < 0.1 µM | 20 to 50% | – | – |
| CC(C)c1nc(-c2ncn3c2Cc2cn(C)nc2-c2cc(Cl)ccc2-3)no1 [Compound 141] | – | – | < 0.1 µM | 20 to 50% |
| Cn1cc2c(n1)-c1cc(Cl)ccc1-n1cnc(-c3noc(C4COC4)n3)c1C2 [Compound 223] | < 0.1 µM | 5 to 20% | – | – |
| COCc1noc(-c2ncn3c2Cc2cn(CC4CCCO4)nc2-c2cc(Cl)ccc2-3)n1 (centres unmarked) [Compound 288] | – | – | < 0.1 µM | > 50% |

| SMILES | Ki (α5β3γ2 GABAA R; [1]) | activation at 0.1 µM (GABAA R (α5β2γ2); [2]) | Ki (α5β3γ2 GABAA R) | activation at 0.1 µM (GABAA R (α5β2γ2); [3]) |
| --- | --- | --- | --- | --- |
| COc1ccc2c(c1)-c1nn(C)cc1Cc1c(-c3nc(C4CCOCC4)no3)ncn1-2 [Compound 220] | – | – | < 0.1 µM | 20 to 50% |
| FC(F)(F)c1noc(-c2ncn3c2Cc2cn(C4CCOC4)nc2-c2cc(Cl)ccc2-3)n1 (centres unmarked) [Compound 228] | – | – | < 0.1 µM | 5 to 20% |
| CCn1cc2c(n1)-c1cc(Cl)ccc1-n1cnc(-c3noc(C4COCCO4)n3)c1C2 (centres unmarked) [Compound 195] | – | – | < 0.1 µM | 5 to 20% |
| COc1ccc2c(c1)-c1nn(C)cc1Cc1c(-c3noc([C@@H]4CCOC4)n3)ncn1-2 [Compound 256] | – | – | < 0.1 µM | 5 to 20% |
| COc1ccc2c(c1)-c1nn(C)cc1Cc1c(-c3cnn(Cc4ccccn4)c3)ncn1-2 [Compound 282] | – | – | < 0.1 µM | 5 to 20% |
| Cn1cc2c(n1)-c1cc(Cl)ccc1-n1cnc(-c3nc(C4CCOCC4)no3)c1C2 [Compound 219] | – | – | < 0.1 µM | 5 to 20% |
| COc1ccc2c(c1)-c1nn(C)cc1Cc1c(-c3nc([C@@H]4CCOC4)no3)ncn1-2 [Compound 260] | – | – | < 0.1 µM | 5 to 20% |
| CCn1cc2c(n1)-c1cc(Cl)ccc1-n1cnc(-c3nc(CN4CCCC4)no3)c1C2 [Compound 266] | < 0.1 µM | – | – | 5 to 20% |
| CC(C)c1noc(-c2ncn3c2Cc2cn(C(C)C)nc2-c2cc(Cl)ccc2-3)n1 [Compound 138] | – | – | < 0.1 µM | 20 to 50% |
| CCn1cc2c(n1)-c1cc(OC)ccc1-n1cnc(-c3nc(CN4CCCC4)no3)c1C2 [Compound 267] | – | – | < 0.1 µM | 5 to 20% |
| CC(C)c1noc(-c2ncn3c2Cc2cn(Cc4ccccc4)nc2-c2cc(Cl)ccc2-3)n1 [Compound 96] | < 0.1 µM | 5 to 20% | – | – |
| Cn1cc2c(n1)-c1cc(Cl)ccc1-n1cnc(-c3nc(COC4COC4)co3)c1C2 [Compound 285] | – | – | < 0.1 µM | > 50% |
| COc1ccc2c(c1)-c1c(cnn1CC1CCOC1)Cc1c(-c3nc(C4CC4)no3)ncn1-2 (centres unmarked) [Compound 249] | – | – | < 0.1 µM | 5 to 20% |
| COc1ccc2c(c1)-c1nn(C)cc1Cc1c(-c3noc(C(F)(F)F)n3)ncn1-2 [Compound 130] | – | – | < 0.1 µM | > 50% |
| COc1ccc2c(c1)-c1c(cnn1C)Cc1c(-c3noc(C4(F)CC4)n3)ncn1-2 [Compound 206] | – | – | < 0.1 µM | 20 to 50% |
| CC(C)n1cc2c(n1)-c1cc(Cl)ccc1-n1cnc(-c3noc(C4COCCO4)n3)c1C2 (centres unmarked) [Compound 268] | – | – | < 0.1 µM | 20 to 50% |
| COc1ccc2c(c1)-c1n[nH]cc1Cc1c(-c3noc(C(C)(C)OC)n3)ncn1-2 [Compound 181] | < 0.1 µM | > 50% | – | – |
| CC(C)c1noc(-c2ncn3c2Cc2cn(CC4CCOC4)nc2-c2cc(Cl)ccc2-3)n1 (centres unmarked) [Compound 201] | – | – | < 0.1 µM | 5 to 20% |
| CC(C)c1noc(-c2ncn3c2Cc2cn(CCN(C)C)nc2-c2cc(Cl)ccc2-3)n1 [Compound 112] | – | – | < 0.1 µM | 5 to 20% |
| COc1ccc2c(c1)-c1nn(C)cc1Cc1c(-c3noc(C4COCCO4)n3)ncn1-2 (centres unmarked) [Compound 207] | – | – | < 0.1 µM | 20 to 50% |
| COc1ccc2c(c1)-c1nn(C)cc1Cc1c(-c3noc(COC(C)(C)C)n3)ncn1-2 [Compound 296] | – | – | < 0.1 µM | 20 to 50% |
| COCC1COC(c2ncn3c2Cc2cn(C)nc2-c2cc(Cl)ccc2-3)=N1 (centres unmarked) [Compound 189] | – | – | < 0.1 µM | 20 to 50% |
| COCc1nc(-c2ncn3c2Cc2cn(C)nc2-c2cc(OC)ccc2-3)no1 [Compound 153] | < 0.1 µM | 20 to 50% | – | – |
| COc1ccc2c(c1)-c1[nH]ncc1Cc1c(C#Cc3cccnc3)ncn1-2 [Compound 91] | – | – | < 0.1 µM | 5 to 20% |
| CCOCc1nc(-c2ncn3c2Cc2cn(C)nc2-c2cc(OC)ccc2-3)no1 [Compound 137] | – | – | < 0.1 µM | 20 to 50% |
| COc1ccc2c(c1)-c1nn(C)cc1Cc1c(-c3noc(C4CCOC4)n3)ncn1-2 (centres unmarked) [Compound 136] | – | – | < 0.1 µM | 20 to 50% |
| CC(C)c1noc(-c2ncn3c2Cc2cn(Cc4ccncc4)nc2-c2cc(Cl)ccc2-3)n1 [Compound 97] | – | – | < 0.1 µM | 5 to 20% |
